Test results from patent US5869494A, “Uses for barbituric acid analogs” (priority 1997, dated 1999).
Entries after “also recorded” stand apart in the source; their conditions may differ. Like-named read-outs stand apart in the source and are kept apart here.

Assays:
[1] = test system: human breast cancer MCF-7 cells; assay: Inhibition of clonogenic growth of breast cancer cells; format: cell-based; conditions: for No. of Colonies (Mean ± S.D.): control 158.5 ± 12.2
Method: After additional incubation periods of 24 h and 48 h, cells were washed to remove the drug and were allowed to grow at 37° C. in a CO2 incubator. After 10 days, colonies consisting of 50 or more cells were counted.

[2] = test system: DU-145 human prostate tumors; assay: Human DU-145 prostate tumors transplanted into athymic mice, oral treatment; format: in vivo, athymic BALB/c nude-nu mice; conditions: 400 mg/kg oral
Description: Male athymic BALB/c nude-nu mice (6-8 weeks old, 18-22 g each) were purchased from Harlan Sprague-Dawley, Inc. (Indianapolis, Ind.) and maintained in a germ-free environment. The mice had free access to sterile food and water. Human prostate DU-145 cells (1×10^7) were transplanted subcutaneously into athymic mice. Solid tumors appearing after 30 days were cut into small pieces (2-2 mm) and transplanted into native mice. […] The treatment schedule consisted of a single dose on alternate days. The control group of animals (3 mice) received vehicle only. […] At this point, the treatment was terminated and animals were kept under observation for the regrowth of prostate tumors.
formula % TGI = 100(1Vt /Vc), where Vt and Vc are the […]

[3] = test system: human immunodeficiency virus (HIV-1); assay: Inactivation of cell free HIV-1 (MT-4 indicator cells); format: cell-based; conditions: 2 h treatment, MT-4 + HIV-1, day 7
Method: (§1) After 2 h at 37° C., treated and control HIV-1 samples were added to the indicator MT-4 cells (cultured human T cells) in the presence of 2 μg/ml POLYBRENE™ for 2 h. After washing, MT-4 cells were cultured in the presence of drug-treated or control (untreated) HIV-1. Cell viability of MT-4 cells was determined by the trypan blue dye exclusion method.

[4] = test system: lung carcinoma (non-small cell); assay: Human tumor cloning system, lung carcinoma (non-small cell); format: cell-based; conditions: responsive = at least 50% inhibition of tumor colony formation
Method: Through the initial work of Hamburger and Salmon (1977 a,b), it is possible to culture human tumors using a two-layer soft agar system. This culture system, called the human tumor cloning system, was initially utilized to select the most appropriate anticancer agent for an individual patient's tumor. […] In an in vitro-in vivo correlation study involving 800 patients retrospectively, it was determined that the true positive rate for this assay was 70%, while the true negative rate for the assay was 98% (Von Hoff et al., 1981). In a more recent prospective clinical trial of the cloning system involving 604 patients, the percent true positive for the assay was 64%, while the percent true negative for the assay was 86% (Von Hoff et al., 1983). […] This system was used to study the response of compound C1 for breast cancer and non-small cell lung carcinoma.
Collection and preparation of tumor cells: After obtaining informed consent in accordance with federal and institutional guidelines, malignant effusions, ascites and bone marrow aspirates containing tumor cells as well as solid tumor specimens were collected from patients undergoing procedure carried out as a part of their diagnostic workup or as part of treatment for their disease. […] The viability of cell suspensions thus obtained was determined with trypan blue.
Tumor cells to be cloned were suspended in 0.3% agar in enriched CMRL 1066 medium (Gibco, Grand Island, N.Y.) supplemented with 15% heat-inactivated horse serum, penicillin (100 units/ml), streptomycin (2 mg/ml) glutamine (2 mM), insulin (3 units/ml), asparagine (0.6 mg/ml), and HEPES buffer (2 mM). […] After an incubation period of 14 days, plates were removed and the number of colonies were counted in each plate. The number of colonies (defined as >50 cells) formed were compared in drug treated and untreated (control) plates and the percent colonies surviving at each drug dose tested was then calculated as a percentage of control. […]

T cells = assay: Modulation of T cells in HIV-1 positive subjects; format: in vivo, human; conditions: 4.3 mg/kg for 15 days; one subject; before treatment 425; normal range 650-1330
Description: Blood samples were drawn before and after on day 15 or 30 from the initiation of treatment for regular CBC profile. […] The normal range of T cells is 650-1330.

[5] = Alleviation of depression in HIV-1 positive subjects; format: in vivo, human; conditions: 4.3 mg/kg for 15 days; three HIV-1 positive subjects
[6] = test system: human fibrosarcoma HT-1080 cells; assay: Effect on human fibrosarcoma HT-1080 cells (trypan blue dye exclusion); format: cell-based; conditions: for viability at 25 µg/mL / viability at 50 µg/mL / viability at 100 µg/mL / viability at 150 µg/mL: HT-1080, read-out: Percent survival; for viability at 25 µg/mL: 25 μg/ml; for viability at 50 µg/mL: 50 μg/ml
Method: Human fibrosarcoma cells were cultured in Minimum essential medium (Eagle) with non-essential amino acids and Earls balanced salt solution supplemented with 10% heat-inactivated fetal bovine serum. Cells (5×10^3 in 0.5 ml of growth medium) were plated in 16 well plates and incubated at 37° C. in a humidified atmosphere of 5% CO2 in air for 24 h. Cells were then treated with different doses of C1. Control wells received vehicle only (<0.5% ethanol in saline). After further incubation periods of 24 and 48 h, the viability of cells was determined by trypan blue dye exclusion method.

MT-4 cells = assay: Toxicity to MT-4 cells; format: cell-based, human; conditions: drug doses of the HIV-1 test (75-125 μg/ml)
Method: as §1

[7] = Homo sapiens, 24 h, control 92.3 ± 3.1
[8] = Homo sapiens, 48 h, control 92.4 ± 3.1

In the case of CCCCN1C(=O)CC(=O)N(CCCC)C1=S [Compound C1, 4,6(1H, 5H)-pyrimidinedione, 1,3-dibutyldihydro-2-thioxo], the “No. of Colonies (Mean ± S.D.)” value ([1]; 20 μg/ml, 24 hr) is reported as 24.5 ± 7.8, the “No. of Colonies (Mean ± S.D.)” value ([1]; 20 μg/ml, 48 hr) is reported as 24.5 ± 6.1 and the “No. of Colonies (Mean ± S.D.)” value ([1]; 40 μg/ml, 24 hr) is reported as 13.5 ± 5.1. For the same compound, the “No. of Colonies (Mean ± S.D.)” value ([1]; 40 μg/ml, 48 hr) was 11.7 ± 1.2, the “No. of Colonies (Mean ± S.D.)” value ([1]; 80 μg/ml, 24 hr) was 3.0 ± 2.2 and the “No. of Colonies (Mean ± S.D.)” value ([1]; 80 μg/ml, 48 hr) was 0 ± 0. The inhibition at 20 µg/mL ([1]; Homo sapiens, MCF7, 20 μg/ml, read-out: Percent Reduction (of colonies)) was 84.5%, the inhibition at 40 µg/mL ([1]; Homo sapiens, MCF7, 40 μg/ml, read-out: Percent Reduction (of colonies)) was 92.6% and the inhibition at 80 µg/mL ([1]; Homo sapiens, MCF7, 80 μg/ml, read-out: Percent Reduction (of colonies)) was 100%. The “tumor cell clonogenic growth” value ([1]; under the conditions employed) was “virtually complete elimination of tumor cell clonogenic growth”, the regrowth of tumors ([2]; 5 months posttreatment) was “no signs of tumor regrowth; also recorded: regrowth of treated tumors did not occur for a period of 5 months” and the palpable prostate tumors ([2]; after 18 doses) was “palpable prostate tumors in the treated group could not be detected; also recorded: palpable tumors were not detectable in treated animals”. The “% TGI (percent tumor growth inhibition)” value ([2]; alternate days, 18 doses) was 99.0%, the “side effects such as weight loss, diarrhea, lethargy or discomfort” value ([2]; alternate days, 18 doses) was “not observed; also recorded: No observable side effects” and the “Tumor Area” value ([2]; alternate days, 18 doses, control 19.90 ± 7.1) was 0.0 cm^2. For the same compound, the “Tumor Volume” value ([2]; alternate days, 18 doses, control 20.64 ± 7.01) was 0.0 cm^3, the “Animal Weight” value ([2]; alternate days, 18 doses, control 28.5) was 29.3 g and the “% Inactivation Day 7” value ([3]; 125 μg/ml) was 62%. It also gave a killing at 75 µg/mL ([3]; Human immunodeficiency virus 1, 168 h, 75 μg/ml) of 7.7%, a killing at 100 µg/mL ([3]; Human immunodeficiency virus 1, 168 h, 100 μg/ml) of 34.1% and a killing at 125 µg/mL ([3]; Human immunodeficiency virus 1, 168 h, 125 μg/ml) of 62.6%. The “# responsive tumors/total # evaluated” value ([4]; 75 μg/ml) was 0/1, the “# responsive tumors/total # evaluated” value ([4]; 100 μg/ml) was 1/1 and the “# responsive tumors/total # evaluated” value ([4]; 125 μg/ml) was 1/1. The “T cell count after treatment” value (T cells) was 720, the “symptoms reported by subjects” value [5] was “alleviation from lethargy, depression and an increased appetite, feeling of being happy, and desire to live” and the fibrosarcoma cells killed ([6]; 25 μg/ml (lowest dose), 48 h) was “virtually all fibrosarcoma cells were killed”. The fibrosarcoma cells killed ([6]; 100 μg/ml, 24 h) was “Virtually all fibrosarcoma cells were killed”, the fibrosarcoma cells killed ([6]; 150 μg/ml, 24 h) was “Virtually all fibrosarcoma cells were killed” and the cytotoxicity at 50 µg/mL ([6]; Homo sapiens, HT-1080, 24 h, read-out: cells killed) was greater than 92%. For the same compound, the viability at 25 µg/mL [6, 7] was 0.03 ± 0.03%, the viability at 25 µg/mL [6, 8] was 0% and the viability at 50 µg/mL [6, 7] was 0.03 ± 0.03%. It also gave a viability at 50 µg/mL [6, 8] of 0%, a viability at 100 µg/mL ([6]; Homo sapiens, 100 μg/ml, 24 h, control 92.3 ± 3.1) of 0% and a viability at 100 µg/mL ([6]; Homo sapiens, 100 μg/ml, 48 h, control 92.4 ± 3.1) of 0%. For the same compound, the viability at 150 µg/mL ([6]; Homo sapiens, 150 μg/ml, 24 h, control 92.3 ± 3.1) was 0%, the viability at 150 µg/mL ([6]; Homo sapiens, 150 μg/ml, 48 h, control 92.4 ± 3.1) was 0% and the “toxicity to the MT-4 cells” value (MT-4 cells) was “not toxic to the MT-4 cells”.
